Columns and labels:
[1] = tested on: NCI-H226; experiment: Growth inhibition of human NCI-H226 cells after 48 hrs by sulforhodamine B assay; type: functional; conditions: NCI-H226, 48 h
[2] = tested on: HOP-92; experiment: Growth inhibition of human HOP92 cells assessed as cell growth at 10 uM after 48 hrs by sulforhodamine B assay; type: functional; conditions: HOP-92, 48 h, read-out: Activity
[3] = tested on: UACC-62; experiment: Growth inhibition of human UACC62 cells after 48 hrs by sulforhodamine B assay; type: functional; conditions: UACC-62, 48 h
[4] = tested on: SNB-19; experiment: Growth inhibition of human SNB19 cells after 48 hrs by sulforhodamine B assay; type: functional; conditions: SNB-19, 48 h
[5] = tested on: M14; experiment: Growth inhibition of human M14 cells after 48 hrs by sulforhodamine B assay; type: functional; conditions: M14, 48 h
[6] = tested on: HCT-15; experiment: Growth inhibition of human HCT15 cells after 48 hrs by sulforhodamine B assay; type: functional; conditions: HCT-15, 48 h
[7] = tested on: MOLT-4; experiment: Growth inhibition of human MOLT4 cells assessed as cell growth at 10 uM after 48 hrs by sulforhodamine B assay; type: functional; conditions: MOLT-4, 48 h, read-out: Activity
[8] = tested on: HCT-15; experiment: Growth inhibition of human HCT15 cells assessed as cell growth at 10 uM after 48 hrs by sulforhodamine B assay; type: functional; conditions: HCT-15, 48 h, read-out: Activity
[9] = tested on: OVCAR-8; experiment: Growth inhibition of human OVCAR8 cells after 48 hrs by sulforhodamine B assay; type: functional; conditions: OVCAR-8, 48 h
[10] = tested on: IGROV-1; experiment: Growth inhibition of human IGROV1 cells assessed as cell growth at 10 uM after 48 hrs by sulforhodamine B assay; type: functional; conditions: IGROV-1, 48 h, read-out: Activity
[11] = tested on: HOP-62; experiment: Growth inhibition of human HOP62 cells after 48 hrs by sulforhodamine B assay; type: functional; conditions: HOP-62, 48 h
[12] = tested on: SR; experiment: Growth inhibition of human SR cells after 48 hrs by sulforhodamine B assay; type: functional
[13] = tested on: ACHN; experiment: Growth inhibition of human ACHN cells after 48 hrs by sulforhodamine B assay; type: functional
[14] = tested on: Malme-3M; experiment: Growth inhibition of human MALME-3M cells after 48 hrs by sulforhodamine B assay; type: functional
[15] = tested on: MCF7; experiment: Growth inhibition of human MCF7 cells assessed as cell growth at 10 uM after 48 hrs by sulforhodamine B assay; type: functional; conditions: MCF7, 48 h, read-out: Activity
[16] = tested on: COLO 205; experiment: Growth inhibition of human COLO205 cells after 48 hrs by sulforhodamine B assay; type: functional; conditions: COLO 205, 48 h
[17] = tested on: LOX IMVI; experiment: Growth inhibition of human LOXIMVI cells after 48 hrs by sulforhodamine B assay; type: functional
[18] = tested on: NCI-H322M; experiment: Growth inhibition of human NCI-H322M cells assessed as cell growth at 10 uM after 48 hrs by sulforhodamine B assay; type: functional; conditions: read-out: Activity
[19] = tested on: OVCAR-4; experiment: Growth inhibition of human OVCAR4 cells after 48 hrs by sulforhodamine B assay; type: functional; conditions: OVCAR-4, 48 h
[20] = Growth inhibition of human NCI-ADR-RES cells assessed as cell growth at 10 uM after 48 hrs by sulforhodamine B assay; type: functional; conditions: read-out: Activity
[21] = tested on: A549; experiment: Growth inhibition of human A549/ATCC cells assessed as cell growth at 10 uM after 48 hrs by sulforhodamine B assay; type: functional; conditions: A549, 48 h, read-out: Activity
[22] = tested on: HT-29; experiment: Growth inhibition of human HT-29 cells assessed as cell growth at 10 uM after 48 hrs by sulforhodamine B assay; type: functional; conditions: HT-29, 48 h, read-out: Activity
[23] = tested on: SN12C; experiment: Growth inhibition of human SN12C cells after 48 hrs by sulforhodamine B assay; type: functional
[24] = tested on: OVCAR-4; experiment: Growth inhibition of human OVCAR4 cells assessed as cell growth at 10 uM after 48 hrs by sulforhodamine B assay; type: functional; conditions: OVCAR-4, 48 h, read-out: Activity
[25] = tested on: SF-539; experiment: Growth inhibition of human SF539 cells assessed as cell growth at 10 uM after 48 hrs by sulforhodamine B assay; type: functional; conditions: SF-539, 48 h, read-out: Activity
[26] = tested on: CCRF-CEM; experiment: Growth inhibition of human CCRF-CEM cells assessed as cell growth at 10 uM after 48 hrs by sulforhodamine B assay; type: functional; conditions: read-out: Activity
[27] = tested on: Malme-3M; experiment: Growth inhibition of human MALME-3M cells assessed as cell growth at 10 uM after 48 hrs by sulforhodamine B assay; type: functional; conditions: read-out: Activity
[28] = tested on: HCT-116; experiment: Growth inhibition of human HCT116 cells after 48 hrs by sulforhodamine B assay; type: functional; conditions: HCT-116, 48 h
[29] = tested on: NCI-H226; experiment: Growth inhibition of human NCI-H226 cells assessed as cell growth at 10 uM after 48 hrs by sulforhodamine B assay; type: functional; conditions: NCI-H226, 48 h, read-out: Activity
[30] = tested on: A498; experiment: Growth inhibition of human A498 cells after 48 hrs by sulforhodamine B assay; type: functional, cell-based; conditions: A498, 48 h
[31] = tested on: HOP-92; experiment: Growth inhibition of human HOP92 cells after 48 hrs by sulforhodamine B assay; type: functional, cell-based; conditions: HOP-92, 48 h
[32] = tested on: MDA-MB-435; experiment: Growth inhibition of human MDA-MB-435 cells assessed as cell growth at 10 uM after 48 hrs by sulforhodamine B assay; type: functional; conditions: MDA-MB-435, 48 h, read-out: Activity
[33] = tested on: SF-268; experiment: Growth inhibition of human SF268 cells after 48 hrs by sulforhodamine B assay; type: functional; conditions: SF-268, 48 h
[34] = tested on: KM12; experiment: Growth inhibition of human KM12 cells assessed as cell growth at 10 uM after 48 hrs by sulforhodamine B assay; type: functional; conditions: KM12, 48 h, read-out: Activity
[35] = tested on: LOX IMVI; experiment: Growth inhibition of human LOXIMVI cells assessed as cell growth at 10 uM after 48 hrs by sulforhodamine B assay; type: functional; conditions: read-out: Activity
[36] = read-out: LC50 (the source's name)

COc1cc(-c2nn(-c3cccc(NC(=O)c4cccc(C(F)(F)F)c4)c3)cc2-c2ccncc2)ccc1Cl
GI50 [1]: 1.66 µM | TGI [1]: 27 µM | CC50 [1, 36]: > 50 µM | growth at 10 µM [2]: -5.59% | GI50 [3]: 1.94 µM | LC50 (50% lethal concentration) [3]: > 50 µM | TGI [3]: > 50 µM | GI50 [4]: 2.46 µM | LC50 (concentration killing 50% of cells) [4]: > 50 µM | TGI [4]: > 50 µM | GI50 [5]: 1.63 µM | LC50 (concentration killing 50% of cells) [5]: > 50 µM | TGI [5]: > 50 µM | GI50 [6]: 1.55 µM | LC50 [6]: > 50 µM | TGI [6]: > 50 µM | growth at 10 µM [7]: 8.63% | growth at 10 µM [8]: 12.8% | GI50 [9]: 2 µM | TGI [9]: > 50 µM | CC50 [9, 36]: > 50 µM | growth at 10 µM [10]: 34% | TGI [11]: > 50 µM | CC50 [11, 36]: > 50 µM | GI50 [12]: 0.838 µM | TGI [12]: 4.59 µM | CC50 [12, 36]: > 50 µM | GI50 [13]: 1.89 µM | TGI [13]: > 50 µM | CC50 [13, 36]: > 50 µM | GI50 [14]: 1.99 µM | LC50 (concentration killing 50% of starting cells) [14]: > 50 µM | TGI [14]: > 50 µM | growth at 10 µM [15]: 3.58% | GI50 [16]: 1.64 µM | LC50 (concentration killing 50% of cells) [16]: 24.8 µM | TGI [16]: 5.17 µM | GI50 [17]: 1.39 µM | LC50 [17]: > 50 µM | TGI [17]: > 50 µM | growth at 10 µM [18]: 58.1% | GI50 [19]: 2.28 µM | LC50 (concentration killing 50% of cells) [19]: > 50 µM | TGI [19]: > 50 µM | growth at 10 µM [20]: 2.75% | growth at 10 µM [21]: 7.4% | growth at 10 µM [22]: -12.1% | GI50 [23]: 3.31 µM | TGI [23]: > 50 µM | CC50 [23, 36]: > 50 µM | growth at 10 µM [24]: 46.5% | growth at 10 µM [25]: -48.8% | growth at 10 µM [26]: 3.1% | growth at 10 µM [27]: 10.1% | GI50 [28]: 1.67 µM | TGI [28]: > 50 µM | CC50 [28, 36]: > 50 µM | growth at 10 µM [29]: 36.2% | GI50 [30]: 0.687 µM | IC50 [30]: 0.69 µM | TGI [30]: 2.78 µM | CC50 [30, 36]: > 50 µM | GI50 [31]: 0.555 µM | IC50 [31]: 0.56 µM | LC50 [31]: > 50 µM | TGI [31]: 3.12 µM | growth at 10 µM [32]: -39.6% | GI50 [33]: 2.13 µM | TGI [33]: > 50 µM | CC50 [33, 36]: > 50 µM | growth at 10 µM [34]: 13.4% | growth at 10 µM [35]: 11.4%
